Measurements published in patent publication US8735406B2, “8-oxodihydropurine derivative” (Dainippon Sumitomo Pharma Co., Ltd., priority 2009, dated 2014).
Like-named read-outs stand apart in the source and are kept apart here.

Biological target: T1, FAAH (Rattus norvegicus, UniProt P97612)
T1 construct: Preparation of Rat Brain Membranes Preparations (FAAH Enzyme Solution); from tissue; host or cells: rat cerebrum (brain membrane preparation)
T1 sequence (P97612 1-579): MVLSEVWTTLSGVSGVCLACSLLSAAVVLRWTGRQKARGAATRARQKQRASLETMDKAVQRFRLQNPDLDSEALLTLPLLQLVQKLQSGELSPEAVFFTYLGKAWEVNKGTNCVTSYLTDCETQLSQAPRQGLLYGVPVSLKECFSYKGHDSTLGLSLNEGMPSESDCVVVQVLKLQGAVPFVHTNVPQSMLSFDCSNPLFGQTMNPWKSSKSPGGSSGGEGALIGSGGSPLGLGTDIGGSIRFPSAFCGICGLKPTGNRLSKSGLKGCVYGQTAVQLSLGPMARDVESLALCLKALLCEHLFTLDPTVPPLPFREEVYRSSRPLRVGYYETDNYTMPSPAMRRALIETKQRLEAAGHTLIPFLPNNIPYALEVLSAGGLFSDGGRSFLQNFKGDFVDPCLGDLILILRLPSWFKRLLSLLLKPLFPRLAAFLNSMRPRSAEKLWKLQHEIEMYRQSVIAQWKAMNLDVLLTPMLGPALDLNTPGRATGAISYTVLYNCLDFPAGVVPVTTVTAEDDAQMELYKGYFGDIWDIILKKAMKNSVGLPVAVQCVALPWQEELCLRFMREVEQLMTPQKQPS
Experiment: Determination of FAAH inhibitory activity in rat (rat brain membrane preparations, [3H]-anandamide hydrolysis)
Type: biochemical
Conditions: rat brain membrane preparations; for IC50: read-out: FAAH Inhibition IC50
Summary of the method: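 Compounds tested from 0.1 nM to 1 μM to derive IC50 against FAAH hydrolysis in rat brain membrane preparations (100 μg/mL). A 10-min 37 °C preincubation was followed by 10 min with [3H]-anandamide (2 nM) mixed with 2 μM unlabelled anandamide. Radioactive ethanolamine was extracted into the water/methanol layer and counted.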

[1] = 100 nM test substance, read-out: FAAH Inhibition, Inhibition Rate at 100 nM

Structure (SMILES)	inhibition at 0.1 µM [1] [%]	IC50 (test substance 0.1 nM to 1 μM) [nM]	inhibition at 0.1 µM (at 100 nM, read-out: FAAH Inhibition Inhibition Rate at 100 nM) [%]	IC50 [nM]
COCCCc1ncc2c(n1)n(C)c(=O)n2C(=O)N1CC(c2cccc(F)c2)C1 [Example 382]	80	5	–	–
CCN(C)C(=O)n1c(=O)n(C)c2nc(Cc3cccc(C)c3)ncc21 [Example 282, N-Ethyl-N,9-dimethyl-2-(3-methylbenzyl)-8-oxo-8,9-dihydro-7H-purine-7-carboxamide]	97	10	–	–
COc1cccc(-c2ncc3c(n2)n(C)c(=O)n3C(=O)N2CCOCC2)c1 [Example 58]	76	62	–	–
CN(C)C(=O)n1c(=O)n(C)c2cnc(-c3ccc(C(F)(F)F)cc3Cl)nc21 [Example 339, 2-[2-Chloro-4-(trifluoromethyl)phenyl]-N,N,7-trimethyl-8-oxo-7,8-dihydro-9H-purine-9-carboxamide]	80	7	–	–
Cn1c(=O)n(C(=O)N2CCCC2)c2cnc(-c3cncc(F)c3)nc21 [compound 211]	101	8	–	–
CN(C)C(=O)n1c(=O)n(C)c2cnc(CCc3ccc(OC4CCCC4)cc3)nc21 [compound 532]	96	13	–	–
COc1cccc(-c2ncc3c(n2)n(C)c(=O)n3C(=O)N(C)Cc2cccc(F)c2)c1 [Example 72, N-(3-Fluorobenzyl)-2-(3-methoxyphenyl)-N,9-dimethyl-8-oxo-8,9-dihydro-7H-purine-7-carboxamide]	99	23	–	–
CCCOc1cccc(CCc2ncc3c(n2)n(C(=O)N(C)C)c(=O)n3C)c1 [compound 535]	61	75	–	–
COCc1ncc2c(n1)n(C)c(=O)n2C(=O)N1CC[C@@H](Oc2ccccc2F)C1 [Example 474]	71	54	–	–
Cn1c(=O)n(C(=O)N2CCCC2)c2nc(-c3ccccc3)ncc21 [Example 224, 7-Methyl-2-phenyl-9-(pyrrolidin-1-ylcarbonyl)-7,9-dihydro-8H-purine-8-one]	91	53	–	–
COCc1ncc2c(n1)n(C)c(=O)n2C(=O)N1CC(c2ccc(Cl)cc2)C1 [compound 446]	101	6	–	–
Cc1ccccc1-c1ncc2c(n1)n(C)c(=O)n2C(=O)N1CCCC1 [compound 169]	78	41	–	–
COc1cccc(-c2ncc3c(n2)n(C)c(=O)n3C(=O)N(C)CCOc2ccccc2)c1 [Example 65, 2-(3-Methoxyphenyl)-N,9-dimethyl-8-oxo-N-(2-phenoxyethyl)-8,9-dihydro-7H-purine-7-carboxamide]	98	3	–	–
Cn1c(=O)n(C(=O)N2CCCC2)c2cnc(-c3cccc(N)c3)nc21 [Example 317, 2-(3-aminophenyl)-9-methyl-7-(pyrrolidin-1-ylcarbonyl)-7,9-dihydro-8H-purine-8-one]	103	< 10	–	–
COc1ccc(Cc2ncc3c(n2)n(C)c(=O)n3C(=O)N2CCCC2)cc1 [Example 262, 2-(4-Methoxybenzyl)-9-methyl-7-(pyrrolidin-1-ylcarbonyl)-7,9-dihydro-8H-purine-8-one]	99	24	–	–
Cn1c(=O)n(C(=O)N2CCCC2)c2nc(CCc3cccc(F)c3)ncc21 [Example 315, 2-[2-(3-Fluorophenyl)ethyl]-7-methyl-9-(pyrrolidin-1-ylcarbonyl)-7,9-dihydro-8H-purine-8-one]	95	19	–	–
COc1ccccc1N1CCN(C(=O)n2c(=O)n(C)c3nc(-c4ccccc4)ncc32)CC1 [Example 122, 7-{[4-(2-Methoxyphenyl)piperazin-1-yl]carbonyl}-9-methyl-2-phenyl-7,9-dihydro-8H-purine-8-one]	97	35	–	–
COc1cccc(-c2ncc3c(n2)n(C)c(=O)n3C(=O)N(C)CCc2ccc(N(C)C)cc2)c1 [Example 113, N-{2-[4-(Dimethylamino)phenyl]ethyl}-2-(3-methoxyphenyl)-N,9-dimethyl-8-oxo-8,9-dihydro-7H-purine-7-carboxamide]	103	3	–	–
CN1CCN(C(=O)n2c(=O)n(C)c3nc(-c4ccccc4)ncc32)CC1 [Example 26]	38	> 100	–	–

Structure (SMILES)	inhibition at 0.1 µM [1] [%]	IC50 (test substance 0.1 nM to 1 μM) [nM]	inhibition at 0.1 µM (at 100 nM, read-out: FAAH Inhibition Inhibition Rate at 100 nM) [%]	IC50 [nM]
CCCc1ccc(CCc2ncc3c(n2)n(C(=O)N2CCC2)c(=O)n3C)cc1 [compound 562]	101	10	–	–
COCc1ncc2c(n1)n(C)c(=O)n2C(=O)N1CC(c2ccc(OC)cc2)C1 [compound 450]	89	20	–	–
COc1cccc(-c2ncc3c(n2)n(C)c(=O)n3C(=O)N2CCC(CCc3ccc(Cl)cc3)CC2)c1 [Example 68, 7-({4-[2-(4-Chlorophenyl)ethyl]piperidin-1-yl}carbonyl)-2-(3-methoxyphenyl)-9-methyl-7,9-dihydro-8H-purine-8-one]	98	6	–	–
Cn1c(=O)n(C(=O)N2CCC2)c2nc(COc3cccc(F)c3)ncc21 [Example 420]	60	65	–	–
COc1cccc(Cc2ncc3c(n2)n(C)c(=O)n3C(=O)N2CCC2)c1 [Example 375, 7-(Azetidin-1-ylcarbonyl)-2-(3-methoxybenzyl)-9-methyl-7,9-dihydro-8H-purine-8-one]	94	24	–	–
CCCCn1c(=O)n(C(=O)N2CCCC2)c2cnc(-c3ccccc3)nc21 [Example 306, 9-Butyl-2-phenyl-7-(pyrrolidin-1-ylcarbonyl)-7,9-dihydro-8H-purine-8-one]	99	15	–	–
CN(C)C(=O)n1c(=O)n(C)c2cnc(-c3cccc(F)c3)nc21 [compound 323]	57	77	–	–
Cn1c(=O)n(C(=O)N2CCCC2)c2nc(Cc3ccc(F)c(F)c3)ncc21 [Example 293, 2-(3,4-Difluorobenzyl)-7-methyl-9-(pyrrolidin-1-ylcarbonyl)-7,9-dihydro-8H-purine-8-one]	97	24	–	–
COc1cccc(-c2ncc3c(n2)n(C(=O)N2CCC2)c(=O)n3C)c1 [compound 355]	76	86	–	–
COc1cccc(-c2ncc3c(n2)n(C)c(=O)n3C(=O)N(C)CCOc2ccc(Cl)cc2)c1 [Example 77, N-[2-(4-Chlorophenoxy)ethyl]-2-(3-methoxyphenyl)-N,9-dimethyl-8-oxo-8,9-dihydro-7H-purine-7-carboxamide]	116	3	–	–
CCOc1ccc(-c2ncc3c(n2)n(C(=O)N2CCC2)c(=O)n3C)cc1 [compound 347]	72	61	–	–
Cn1c(=O)n(C(=O)N2CCCC2)c2cnc(-c3ccncc3)nc21 [Example 213, 9-Methyl-2-(pyridin-4-yl)-7-(pyrrolidin-1-ylcarbonyl)-7,9-dihydro-8H-purine-8-one]	100	5	–	–
Cn1c(=O)n(C(=O)N2CCCC2)c2nc(/C=C/c3ccccc3)ncc21 [Example 241, 7-Methyl-2-[(E)-2-phenylethenyl]-9-(pyrrolidin-1-ylcarbonyl)-7,9-dihydro-8H-purine-8-one]	94	43	–	–
COc1cccc(-c2ncc3c(n2)n(C)c(=O)n3C(=O)N2CC[C@@H](F)C2)c1 [Example 62, 7-{[(3R)-3-Fluoropyrrolidin-1-yl]carbonyl}-2-(3-methoxyphenyl)-9-methyl-7,9-dihydro-8H-purine-8-one]	90	26	–	–
Cn1c(=O)n(C(=O)N2CCC2)c2cnc(COc3ccc(Cl)cc3)nc21 [compound 406]	54	100	–	–
Cn1c(=O)n(C(=O)N2CCC2)c2nc(CCc3cccc(F)c3)ncc21 [Example 164, 9-(Azetidin-1-ylcarbonyl)-2-[2-(3-fluorophenyl)ethyl]-7-methyl-7,9-dihydro-8H-purine-8-one]	98	5	–	–
Cn1c(=O)n(C(=O)N2CCC2)c2nc(CCc3ccc(OCC(F)(F)F)cc3)ncc21 [Example 613, 9-(Azetidin-1-ylcarbonyl)-7-methyl-2-{2-[4-(2,2,2-trifluoroethoxy)phenyl]ethyl}-7,9-dihydro-8H-purine-8-one]	–	–	95	12
CN(C)C(=O)n1c(=O)n(C)c2cnc(CCc3ccccc3C(F)F)nc21 [compound 546]	86	28	–	–
CN(C)C(=O)n1c(=O)n(C)c2cnc(COc3cccc(OC(F)F)c3)nc21 [Example 431]	60	94	–	–
